Experiment [1] concerns Mycobacterium tuberculosis. Put plainly: Antimycobacterial activity against Mycobacterium tuberculosis H37Rv by MTT assay after 4 days by MTT assay. The experiment is classed as functional. Particulars: 96 h.
Experiment [2] has as its system Mycobacterium tuberculosis. In words: Antimycobacterial activity against Mycobacterium tuberculosis H37Rv at 100 ug/ml after 4 days by MTT assay. The experiment is classed as functional. Particulars: 96 h, read-out: GI. A general note: Tetrazolium assays rely on reduction of a dye to a coloured formazan, in cell work by metabolically active cells.
The test system of experiment [3] is Mycobacterium tuberculosis. In words: Antimycobacterial activity against Mycobacterium tuberculosis H37Ra at 200 ug/ml after 4 days by MTT assay. The experiment is classed as functional, organism-based.
Experiment [4] is described as follows: Cytotoxicity against human CEM-TART cells after 72 hrs by MTT assay. The experiment is classed as cell-based.
For experiment [5], the system named is Mycobacterium tuberculosis. Put plainly: Antimycobacterial activity against Mycobacterium tuberculosis H37Ra after 4 days by MTT assay. The experiment is classed as functional. Particulars: 96 h.

SMILES strings stand for the structures. ≈ marks a conversion by molar mass, not a printed value. Calls of active or inactive are those of the source. The calls are words filed in the database; no cut-off is given here.

For orientation: MIC means the lowest concentration found to suppress growth. Broadly, the EC50 is the midpoint of the concentration-response curve. High values mean a less potent agent, low ones a more potent agent.

`CC(C)=CCC/C(C)=C/CC/C(C)=C/CC/C=C(\C)CC/C=C(\C)CCC=C(C)C` [SQUALENE] returned a minimum inhibitory concentration (MIC) in experiment [1] of 100 µg/mL (≈ 243 µM). For the same molecule, in experiment [2], the inhibition of growth at 100 µg/mL was determined as 99%. Further, in experiment [3], the outcome was inactive.

Regarding `COc1cccc2c1C(=O)c1c(O)c3c(c(O)c1C2=O)C[C@@](O)(C(=O)CO)C[C@@H]3O[C@H]1C[C@H](N)[C@H](O)[C@H](C)O1` [DOXORUBICIN], in experiment [4], the EC50 stood at 0.0044 µg/mL (≈ 0.0081 µM).

The molecule `C/C(=C\CC/C(C)=C/CC/C=C(\C)CC/C=C(\C)CCC=C(CO)CO)CCC=C(CO)CO` [TETRAHYDROXYSQUALENE] returned a minimal inhibitory concentration (MIC) in experiment [5] of 10 µg/mL (≈ 21.1 µM). The molecule further returned a 50% effective concentration (EC50) in experiment [4] of 27.5 µg/mL (≈ 57.9 µM).

As to `CO[C@H]1/C=C/O[C@@]2(C)Oc3c(C)c(O)c4c(O)c(c(/C=N/N5CCN(C)CC5)c(O)c4c3C2=O)NC(=O)/C(C)=C\C=C\[C@H](C)[C@H](O)[C@@H](C)[C@@H](O)[C@@H](C)[C@H](OC(C)=O)[C@@H]1C` [RIFAMPIN], the MIC in experiment [5] and in experiment [1] was 0.0025 µg/mL (≈ 0.00304 µM) in each case.

(Values after ChEMBL document CHEMBL1156648, “Tetrahdroxysqualene from Rhus taitensis shows antimycobacterial activity against Mycobacterium tuberculosis” (J Nat Prod, 2008).)
